In US8759300B2, “Polypeptides and methods of use” (The Research Foundation for the State University of New York, priority 2007, dated 2014):
Each block holds one sequence with its values, some of them ahead of it. No end group written: not given here.

Experiments:
[1] = tested on: TGF-β1 binding to intact human plasma FN; test: Inhibition of I125 TGF-β1 binding to immobilized FN by growth factor peptide; conditions: increasing concentrations of peptide; 25° C., 2 hours
Description: (§1) FIG. 9. Inhibition of TGF-β1 and PDGF-BB binding to intact human plasma FN with TGF-β1 and PDGF-BB FN-binding peptides, respectively. FN was adsorbed onto tissue culture plastic at a concentration of 0.125 μM and then excess protein-binding sites of the plastic blocked with 2% bovine serum albumin. Growth factor labeled with I^125 was incubated with FN-coated plates at 25° C. for 2 hours in the presence or absence of peptide. Data was calculated as [(GF binding in presence of peptide−background)/(GF binding in absence of peptide-background)]×100. n=3.
(§2) Two of these synthetic peptides (homologous to TGF-β1 and homologous to PDGF-BB) inhibit TGF-β1 and PDGF-BB binding to FN respectively (FIG. 9). Inhibition of TGF-β1 and PDGF-BB binding to intact human plasma FN was determined as follows. FN was adsorbed onto tissue culture plastic at a concentration of 0.125 μM and then excess protein-binding sites of the plastic blocked with 2% bovine serum albumin. Growth factor labeled with I^125 was incubated with FN-coated plates at 25° C. for 2 hours in the presence or absence of peptide. For example, relative binding of TGF-β1 to immobilized FN was determined for increasing concentrations of the synthetic peptide homologous to TGF-β1. […] For example, relative binding of PDGF-BB to immobilized FN was determined for increasing concentrations of the synthetic peptide homologous to PDGF-BB. […]

[2] = tested on: PDGF-BB binding to intact human plasma FN; test: Inhibition of I125 PDGF-BB binding to immobilized FN by growth factor peptide; conditions: increasing concentrations of peptide; 25° C., 2 hours
Chain of PDGF-BB binding to intact human plasma FN (P02751 610-812 limits assumed): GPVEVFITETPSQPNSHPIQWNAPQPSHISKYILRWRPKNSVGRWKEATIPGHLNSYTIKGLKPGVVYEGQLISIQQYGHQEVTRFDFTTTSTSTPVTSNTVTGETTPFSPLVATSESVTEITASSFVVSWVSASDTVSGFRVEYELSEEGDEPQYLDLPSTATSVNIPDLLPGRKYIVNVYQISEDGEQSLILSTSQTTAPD
Chain of PDGF-BB binding to intact human plasma FN (P02751 1815-2080 limits assumed): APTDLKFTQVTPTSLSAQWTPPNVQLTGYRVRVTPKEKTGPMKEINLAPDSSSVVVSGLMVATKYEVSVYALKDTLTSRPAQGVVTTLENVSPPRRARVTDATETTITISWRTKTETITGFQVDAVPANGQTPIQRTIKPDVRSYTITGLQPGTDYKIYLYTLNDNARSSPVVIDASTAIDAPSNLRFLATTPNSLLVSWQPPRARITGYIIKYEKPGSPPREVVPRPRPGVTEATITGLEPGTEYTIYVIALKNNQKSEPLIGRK
Description: as §1, §2

[3] = tested on: FN-null cells; test: FN-null cell assay, peptides added directly to medium on FNIII8-11; format: cell-based, mouse; conditions: peptide added directly to media with or without PDGF-BB
Description: FIG. 6. FN-null fibroblast response to soluble, unconjugated P5 (SEQ ID NO:37). FN-null cells were cultured at 4,000 cells/well in 96 well plates precoated with 0.125 mM of FNIII8-11 in DMEM for 4 hrs, and then further incubated in DMEM+2% BSA with or without the indicated concentrations of Peptide 5 at 37° C. for 3 days. Cells were counted in three 10× fields in each of 4 wells (mean±SD, n−12).
Scrambled variants of peptides 1 and 5 had no activity in these assays.
Variants of peptide 5 derived from fibronectin were generated by removing one amino acid at a time from the N-terminus or C-terminus of Peptide 5 (Table 2). These peptides (P12-P24) were added directly to medium with or without PDGF-BB.

[4] = tested on: AHDF cells; test: AHDF proliferation response to PDGF-BB, XTT assay; format: cell-based, human; conditions: 30 ng/mL PDGF-BB, 1 week
Description: FIG. 7. […] AHDF cells were cultured at 4,000 cells/well in uncoated 96-well plates. Cells were incubated in DMEM for 4 hrs, and then further incubated in DMEM, 2% BSA, 30 ng/mL PDGF-BB with and without Peptide 5 (P5) at 37° C. for 1 week. Proliferation was estimated by the XTT assay (Promega) according to the manufacturer's instructions (mean±SD, n=4).

Chain of TGF-β1 binding to intact human plasma FN (P02751 610-812 limits assumed): as the sequence (P02751 610-812 limits assumed) above
Chain of TGF-β1 binding to intact human plasma FN (P02751 1815-2080 limits assumed): as the sequence (P02751 1815-2080 limits assumed) above

Proportion of full-length TGF-β1 bound to immobilized FN [1]: decreased with increasing concentration
Sequence: CCVRQLYIDFRKDLG [synthetic peptide homologous to TGF-β1]

Proportion of full-length PDGF-BB bound to immobilized FN [2]: decreased with increasing concentration
Sequence: CKTRTEVFEISRRLI [synthetic peptide homologous to PDGF-BB]

Sequence: QPSHISKYILRWRPK [P5, QPSHISKYILRWRPK]
FN null cell survival and proliferation [3]: supported FN null cell survival and proliferation
AHDF proliferation response to PDGF-BB [4]: enhanced AHDF proliferation response to PDGF-BB
